Measured values reported in ChEMBL document CHEMBL5325464, “Design, synthesis and evaluation the bioactivities of novel 1,3-dimethyl-6-amino-1H-indazole derivatives as anticancer agents” (Bioorg Med Chem, 2023).
Values belong to the compound of their own block, whether it stands above or below them. The source made the active and inactive calls. The rule behind the calls is not given here.

What was measured:
[1] = system: FaDu; experiment: Cytotoxicity against human FaDu cells assessed as reduction of cell viability at 20 uM measured after 24 hrs by MTT assay; type: functional
[2] = system: FaDu; experiment: Cytotoxicity against human FaDu cells assessed as reduction of cell viability measured after 24 hrs by MTT assay; type: functional, cell-based
[3] = Cytotoxicity against human DPSC cells assessed as reduction of cell viability at 20 uM measured after 24 hrs by MTT assay; type: toxicity, cell-based
[4] = Cytotoxicity against human YD-15 cells assessed as reduction of cell viability at 50 uM measured after 24 hrs by MTT assay; type: functional
[5] = system: MCF7; experiment: Cytotoxicity against human MCF7 cells assessed as reduction of cell viability at 25 uM measured after 24 hrs by MTT assay; type: functional
[6] = target: T1, Indoleamine 2,3-dioxygenase 1 (Homo sapiens, UniProt P14902); experiment: Inhibition of human IDO1 expressed in human FaDu cells at IC50 incubated for 24 hrs by ELISA assay; type: cell-based
Target sequence in this assay (P14902 whole entry, looked up): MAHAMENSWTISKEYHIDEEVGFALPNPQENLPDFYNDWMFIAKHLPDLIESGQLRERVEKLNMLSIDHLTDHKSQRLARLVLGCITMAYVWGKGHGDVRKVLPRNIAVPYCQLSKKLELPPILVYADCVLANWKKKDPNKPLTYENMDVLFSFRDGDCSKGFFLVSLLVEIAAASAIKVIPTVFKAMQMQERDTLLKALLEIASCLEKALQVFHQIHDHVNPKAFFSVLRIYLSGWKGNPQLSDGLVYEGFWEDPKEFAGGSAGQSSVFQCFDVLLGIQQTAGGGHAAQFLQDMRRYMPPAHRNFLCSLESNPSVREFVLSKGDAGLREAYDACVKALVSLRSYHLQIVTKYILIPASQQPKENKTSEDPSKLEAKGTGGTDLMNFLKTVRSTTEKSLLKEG

[7] = target: T1, Indoleamine 2,3-dioxygenase 1; experiment: Inhibition of human recombinant IDO1 incubated for 1 hr by HPLC analysis
Target sequence in this assay (P14902 whole entry): as the sequence (P14902 whole entry, looked up) above

[8] = Activation of ERK pathway in human FaDu cells assessed as effect on p38 phosphorylation upto 3 uM measured after 24 hrs by Western blotting analysis; type: cell-based
[9] = system: FaDu; experiment: Induction of apoptosis in human FaDu cells assessed as nuclear condensation upto 3 uM measured after 24 hrs by DAPI staining based fluorescence microscopic analysis; type: functional, cell-based
[10] = system: FaDu; experiment: Inhibition of cell migration in human FaDu cells measured after 24 hrs by wound healing assay; type: functional, cell-based; conditions: dose 1-3 µM
[11] = target: T1, Indoleamine 2,3-dioxygenase 1; experiment: Inhibition of human IDO1 expressed in human FaDu cells at 2.78 uM incubated for 24 hrs by ELISA assay relative to control; type: cell-based
Target sequence in this assay (P14902 whole entry, looked up): as above

[12] = target: T1, Indoleamine 2,3-dioxygenase 1; experiment: Inhibition of human IDO1 expressed in human FaDu cells incubated for 24 hrs by Western blotting analysis; type: cell-based
Target sequence in this assay (P14902 whole entry, looked up): as above

[13] = system: FaDu; experiment: Induction of apoptosis in human FaDu cells assessed as nuclear fragmentation upto 3 uM measured after 24 hrs by DAPI staining based fluorescence microscopic analysis; type: functional, cell-based
[14] = system: FaDu; experiment: Downregulation of MMP9 expression in human FaDu cells at 1 to 3 uM incubated for 24 hrs by Western blot analysis; type: functional, cell-based; conditions: dose 1-3 µM
[15] = system: FaDu; experiment: Induction of apoptosis in human FaDu cells assessed as activation of cleaved caspase 3 level upto 3 uM measured after 24 hrs by Western blot analysis; type: functional, cell-based
[16] = system: FaDu; experiment: Induction of apoptosis in human FaDu cells assessed as activation of PARP level upto 3 uM measured after 24 hrs by Western blot analysis; type: functional, cell-based
[17] = Activation of ERK pathway in human FaDu cells assessed as decrease in JNK phosphorylation upto 3 uM measured after 24 hrs by Western blotting analysis; type: cell-based; conditions: filed as activator
[18] = Activation of ERK pathway in human FaDu cells assessed as increase in ERK phosphorylation upto 3 uM measured after 24 hrs by Western blotting analysis; type: cell-based; conditions: filed as activator

Compound: Cc1nn(C)c2cc(NCc3ccncc3)ccc12
- Activity [1]: 86.72%
- IC50 [2]: > 50 µM
- Activity [3]: 82.84%
- Activity [4]: 97.98%
- Activity [5]: 93.76%

- IDO1 inhibition (qualitative) [6]: Active
Compound: COc1ccc(CNc2ccc3c(C)nn(C)c3c2)cc1
- Activity [1]: 10.4%
- IC50 [2]: 6.67 µM
- Activity [3]: 91.62%
- Activity [4]: 67.1%
- Activity [5]: 102.24%

Compound: Cc1nn(C)c2cc(NCc3ccc(O)cc3)ccc12
- Activity [1]: 87.72%
- IC50 [2]: > 50 µM
- Activity [3]: 94.7%
- Activity [4]: 98.59%
- Activity [5]: 100.39%

Compound: Cc1nn(C)c2cc(NCc3ccc(N(C)C)cc3)ccc12
- Activity [1]: 93.5%
- IC50 [2]: > 50 µM
- Activity [3]: 91.6%
- Activity [4]: 26.86%
- Activity [5]: 84.75%

Compound: COc1cc(CNc2ccc3c(C)nn(C)c3c2)cc(OC)c1OC
- Activity [1]: 49.4%
- IC50 [2]: 19.9 µM
- Activity [3]: 82.54%
- Activity [4]: 86.71%
- Activity [5]: 92.8%

Compound: COc1ccc(CNc2ccc3c(C)nn(C)c3c2)c(O)c1
- Activity [1]: 84.68%
- IC50 [2]: > 50 µM
- Activity [3]: 84.9%
- Activity [4]: 102.06%
- Activity [5]: 88.27%

- IDO1 inhibition (qualitative) [6]: Active
Compound: COc1ccc(CNc2ccc3c(C)nn(C)c3c2)cc1O
- Activity [1]: 7.26%
- IC50 [2]: 6.19 µM
- Activity [3]: 86.87%
- Activity [4]: 99.01%
- Activity [5]: 95.71%

- IDO1 inhibition (qualitative) [6]: Active
Compound: Cc1nn(C)c2cc(NCc3ccc(Cl)cc3)ccc12
- Activity [1]: 8.43%
- IC50 [2]: 3.57 µM
- Activity [3]: 84.13%
- Activity [4]: 52.82%
- Activity [5]: 101.58%

- IDO1 inhibition (qualitative) [6]: Active
Compound: Cc1nn(C)c2cc(NCc3ccc(F)c(F)c3)ccc12
- Activity [1]: 8.08%
- IC50 [2]: 3.49 µM
- Activity [3]: 90.4%
- Activity [4]: 63.3%
- Activity [5]: 100.45%

- IC50 [7]: 0.72 µM
Compound: O=C(NNc1ccccc1)c1n[nH]c2cc(Br)ccc12

- IDO1 inhibition (qualitative) [6]: Active
Compound: COc1ccc(CNc2ccc3c(C)nn(C)c3c2)c(OC)c1OC
- Activity [1]: 7.8%
- IC50 [2]: 1.87 µM
- Activity [3]: 90.13%
- Activity [4]: 101.41%
- Activity [5]: 104.07%

- inhibition [11]: 45.7%
- inhibition [12]: Dose-Dependent Effect
Compound: Cc1nn(C)c2cc(NCc3ccc(Br)cc3)ccc12
- Activity [8]: inactive
- Activity [9]: Active
- Activity [1]: 8.29%
- IC50 [2]: 2.78 µM
- inhibition [10]: Dose-Dependent Effect
- Activity [3]: 94.66%
- Activity [13]: Active
- Activity [4]: 7.87%
- Activity [5]: 102.61%
- Activity [14]: Active
- Activity [15]: Active
- Activity [16]: Active
- Activity [17]: Active
- Activity [18]: Active

- IDO1 inhibition (qualitative) [6]: Active
Compound: Cc1nn(C)c2cc(NCc3ccc([N+](=O)[O-])cc3)ccc12
- Activity [1]: 7.77%
- IC50 [2]: 11.2 µM
- Activity [3]: 100.99%
- Activity [4]: 94.88%
- Activity [5]: 98.33%
